Laboratory results reported in US20130005678A1, “Methods and Compositions for Treating or Ameliorating Cancer Using Gemcitabine-5'-Elaidate” (CLAVIS PHARMA ASA, priority 2010, published 2013).

Tests used:
[1] = tested on: P388 leukemia cells; test: Antitumor effect in P388 murine leukemia model; type: in vivo; settings: B6D2F1 female mice; intraperitoneal; single doses or daily for 10 consecutive days; all tested doses and schedules
[2] = tested on: THX, Lox, MOLT4, and MOLT4/C; test: Protection by dipyridamole from cell killing in vitro (FIG. 4); type: cell-based; settings: four cell lines
Text: The number on the Y axis is the fold protection by dipyridamole from administration of gemcitabine and gemcitabine-5′-elaidate.

[3] = tested on: CEM cells; test: Intracellular dFdCTP level in CEM cells with or without dipyridamole (HPLC); type: cell-based, human
Method: hENT1 can inhibited in vitro by various agents including dipyridamole, NBMPR, and NBI. In order to test whether gemcitabine-5′-elaidate entry into the cells is independent of a nucleoside transporter such as hENT1, dipyridamole is used to block hENT1. The intracellular level of dFdCTP is determined in CEM cells after 60 minutes exposure to either dFdC or gemcitabine-5′-elaidate, with or without the addition of dipyridamole (DP). The compounds are administered at 10 μM, and the triphosphates are determined using HPLC. Deamination is blocked using tetrahydrouridine.

[4] = tested on: WiDr-LF cell line; test: Combination with pemetrexed under low folate conditions (WiDr-LF); type: cell-based, human; settings: MTT assay
Method: (§1) The cell lines A549 human NSCLC and WiDr human colon carcinoma are used to determine the combination index and also the effect of Gemcitabine-5′-elaidate on the cell cycle. A sulforhodamine B colorimetric assay is used to determine growth inhibition after 72 hours. Pemetrexed combinations are tested using the MTT assay. Combinations with pemetrexed are also tested in the WiDr-LF cell line, which are WiDr cells cultured under low folate conditions. The IC25 and IC50 values (inhibitory concentrations at 25% or 50%, respectively) are calculated. The IC25 value is used for combinations with serial dilutions of oxaliplatin or docetaxel, and the IC50 value is used for pemetrexed combinations. Median effect analysis is performed.

[5] = tested on: CCRF-CEM human leukemia cell line; test: Triphosphate accumulation and retention in CCRF-CEM cells; type: cell-based
Text: Drugs: Gemcitabine-5′-elaidate was provided by Clavis Pharma (Oslo, Norway), tetra hydro uridine (THU) was from Calbiochem (Merck, Darmstadt, Germany), dipyridamole and ara-C were from Sigma-Aldrich (St. Louis, Mo., USA) and dFdC was from Eli-Lilly (Indianapolis, Ind., USA). The radioactively labeled drugs were obtained from Moravek (Brea, Calif., USA); the drugs were labeled with tritium on the 5-C site of the base. A mix of radioactive and non-radioactive compounds was made for exposure of cells; dFdC and CP-4126 were used at a final concentration of 8.9 μM and a specific activity of 586 and 391 mCi/mmol, respectively.
Cell lines: For the experiments the CCRF-CEM human leukemia cell line and its dCK negative variant (CEM/dCK−) were used. The cell lines were cultured in RPMI medium (BioWhittaker, Verviers, Belgium) supplemented with 10% fetal calf serum (PAA laboratories, Pasching, Austria) and HEPES buffer (BioWhittaker). Of the nucleoside influx transporters, the CEM cell line only expresses the equilibrative nucleoside transporter (hENT) and not the concentrative nucleoside transporter (hCNT). Belt et al. Adv. Enzyme Regul., 1993, 33, 235-52. Dipyridamole (DP) was used to inhibit the influx of the drugs by hENT. In order to get a clean picture, THU was also added to inhibit deamination of ara-C and dFdC.
Triphosphate accumulation: Cells were treated with 1 and 10 μM of dFdC, while for the lipophilic analogs 10 and 100 μM was used. The cells were incubated for 60 minutes and retention of the triphosphates was investigated after 60 and 120 minutes incubation in drug-free medium. Dipyridamole was added to inhibit drug influx by the hENT transporter. After incubation the cell pellet was resuspended in ice-cold PBS and incubated for 20 minutes at 4° C. with 40% trichloroacetic acid. After centrifugation (10,000 g, 10 min, 4° C.) the supernatant was treated with a 2-fold excess of trioctylamine/1,1,2-trichlorotrifluorethane (1:4) and spun down (10,000 g, 1 min) and the aqueous phase was stored at −20° C. until analysis by HPLC on a Whatman Partisphere SAX column (GE healthcare, Chalfont St. Giles, UK) using gradient (dFdC-TP) elution as described earlier. Noordhuis et al., Leuk. Res., 1996, 20, 127-34; Ruiz van Haperen, et al., Biochem. Pharmacol., 1994, 48, 1327-39.

[6] = tested on: WiDr human colon carcinoma; test: Combination study in vitro, growth inhibition, median effect analysis (WiDr); type: cell-based
Method: as §1

[7] = tested on: WiDr cell line; test: Platinum accumulation in DNA (WiDr); type: cell-based, human; settings: oxaliplatin 200 μM combined with Gemcitabine-5′-elaidate 0.004 μM
Method: The effect on DNA platinum accumulation in DNA after exposure to oxaliplatin and oxaliplatin combined with Gemcitabine-5′-elaidate (oxaliplatin [200 μM] combined with Gemcitabine-5′-elaidate [0.004 μM]) is also determined.

[8] = tested on: human colon cancer Co6044; test: Antitumor activity in human colon xenograft Co6044 (intraperitoneal); type: in vivo; settings: intraperitoneally every third day five times
Method: Fragments of human colon cancers Co5776 and Co6044 are implanted subcutaneously in NCR female mice (7-8 mice/group). Gemcitabine (120 mg/kg) and gemcitabine-5′-elaidic acid ester (40 mg/kg) are administered intraperitoneally, every third day for five times.

[9] = tested on: A549 cell line; test: Cell cycle analysis, flow cytometry with propidium iodide (A549); type: cell-based, human
Method: The effect on cell cycle is determined after 72 h exposure using flow cytometry combined with propidium iodide staining For cell cycle analysis, the concentration range is from 0.0005 μM to 0.05 μM in the A549 cell line and from 0.001 μM to 0.1 μM in the WiDr cell line. […] The effect on cell cycle is obtained also for the combinations with pemetrexed.

[10] = 72 hours, sulforhodamine B assay

Structure (SMILES): CCCCCCCC/C=C/CCCCCCCC(=O)OC[C@H]1O[C@@H](n2ccc(N)nc2=O)C(F)(F)[C@@H]1O [gemcitabine-5′-elaidic acid ester]
- antitumor activity [1]: significant antitumor activity
- protection by dipyridamole (blocking transporters) against cell killing [2]: does not protect
- dFdCTP levels with inhibitor (DP) compared to without inhibitor ([3]; 10 μM): even increased
- time of maximum dFdCTP concentration ([3]; 10 μM, after exposure): reached at the last time point measured
- dFdCTP accumulation with blocked nucleoside transporters (FIG. 3) ([3]; transporters blocked): accumulates in cells despite blocking transporters
- antagonistic activity of combination with pemetrexed under low folate conditions [4]: slightly reduced
- retention of dFdC-TP concentration after washing away the drugs ([5]; 60 and 120 minutes in drug-free medium): retained at a similar level
- effect of dipyridamole on dFdC-TP accumulation ([5]; hENT inhibited by dipyridamole): even increased the concentration of triphosphates
- combination effect with docetaxel [6, 10]: antagonistic
- combination effect with oxaliplatin [6, 10]: synergistic
- combination effect with pemetrexed ([6]; MTT assay): Antagonistic activity
- platinum adducts in DNA, oxaliplatin combined vs oxaliplatin alone [7]: increase of platinum adducts
- activity compared with gemcitabine ([8]; 40 mg/kg vs gemcitabine 120 mg/kg): similar
- antitumor effect ([8]; NCR female mice, gemcitabine 120 mg/kg, gemcitabine-5′-elaidic acid ester 40 mg/kg): Significant antitumor effect
- effect on cell cycle ([9]; 72 h exposure, 0.0005 μM to 0.05 μM): no effect on cell cycle
- G0/G1 phase, combination with pemetrexed ([9]; increased from 8.8%): 14.1%
- S phase, combination with pemetrexed ([9]; increased from 23.1%): 28.5%
